± gives the expanded uncertainty stated by the source.
What was measured:
[1] = wn = mass fraction of the nth substance listed; details: for surface tension liquid-gas: Maximal bubble pressure; for mass density: 100 kPa, Liquid, Vibrating tube method
[2] = refractive index (Na D-line) (dimensionless); wn = mass fraction of the nth substance listed; details: 100 kPa, Liquid, Standard Abbe refractometry

## CCCCC[n+]1ccccc1.N#C[N-]C#N [1-pentylpyridinium dicyanamide] + O
[1]; 303.15 K, w2 = 0.00159
  surface tension liquid-gas: 53.3 ± 0.5 mN/m
[1]; 303.15 K, w2 = 0.00309
  surface tension liquid-gas: 53.7 ± 0.5 mN/m
[1]; 303.15 K, w2 = 0.00463
  surface tension liquid-gas: 54 ± 0.5 mN/m
[1]; 303.15 K, w2 = 0.00611
  surface tension liquid-gas: 54.3 ± 0.5 mN/m
[1]; 303.15 K, w2 = 0.00762
  surface tension liquid-gas: 54.6 ± 0.5 mN/m
[1]; 303.15 K, w2 = 0.00124
  mass density: 1049.94 ± 2 kg/m3
[1]; 303.15 K, w2 = 0.00269
  mass density: 1049.85 ± 2 kg/m3
[1]; 303.15 K, w2 = 0.00423
  mass density: 1049.72 ± 2 kg/m3
[1]; 303.15 K, w2 = 0.00567
  mass density: 1049.59 ± 2 kg/m3
[1]; 303.15 K, w2 = 0.00714
  mass density: 1049.48 ± 2 kg/m3
[1]; 308.15 K, w2 = 0.00159
  surface tension liquid-gas: 53.1 ± 0.5 mN/m
[1]; 308.15 K, w2 = 0.00309
  surface tension liquid-gas: 53.3 ± 0.5 mN/m
[1]; 308.15 K, w2 = 0.00463
  surface tension liquid-gas: 53.7 ± 0.5 mN/m
[1]; 308.15 K, w2 = 0.00611
  surface tension liquid-gas: 54 ± 0.5 mN/m
[1]; 308.15 K, w2 = 0.00762
  surface tension liquid-gas: 54.3 ± 0.5 mN/m
[1]; 308.15 K, w2 = 0.00124
  mass density: 1046.92 ± 2 kg/m3
[1]; 308.15 K, w2 = 0.00269
  mass density: 1046.83 ± 2 kg/m3
[1]; 308.15 K, w2 = 0.00423
  mass density: 1046.7 ± 2 kg/m3
[1]; 308.15 K, w2 = 0.00567
  mass density: 1046.57 ± 2 kg/m3
[1]; 308.15 K, w2 = 0.00714
  mass density: 1046.45 ± 2 kg/m3
[1]; 313.15 K, w2 = 0.00159
  surface tension liquid-gas: 52.8 ± 0.5 mN/m
[1]; 313.15 K, w2 = 0.00309
  surface tension liquid-gas: 53 ± 0.5 mN/m
[1]; 313.15 K, w2 = 0.00463
  surface tension liquid-gas: 53.4 ± 0.5 mN/m
[1]; 313.15 K, w2 = 0.00611
  surface tension liquid-gas: 53.7 ± 0.5 mN/m
[1]; 313.15 K, w2 = 0.00762
  surface tension liquid-gas: 54 ± 0.5 mN/m
[1]; 313.15 K, w2 = 0.00124
  mass density: 1043.92 ± 2 kg/m3
[1]; 313.15 K, w2 = 0.00269
  mass density: 1043.82 ± 2 kg/m3
[1]; 313.15 K, w2 = 0.00423
  mass density: 1043.69 ± 2 kg/m3
[1]; 313.15 K, w2 = 0.00567
  mass density: 1043.56 ± 2 kg/m3
[1]; 313.15 K, w2 = 0.00714
  mass density: 1043.44 ± 2 kg/m3
[1]; 318.15 K, w2 = 0.00159
  surface tension liquid-gas: 52.4 ± 0.5 mN/m
[1]; 318.15 K, w2 = 0.00309
  surface tension liquid-gas: 52.7 ± 0.5 mN/m
[1]; 318.15 K, w2 = 0.00463
  surface tension liquid-gas: 53 ± 0.5 mN/m
[1]; 318.15 K, w2 = 0.00611
  surface tension liquid-gas: 53.3 ± 0.5 mN/m
[1]; 318.15 K, w2 = 0.00762
  surface tension liquid-gas: 53.6 ± 0.5 mN/m
[1]; 318.15 K, w2 = 0.00124
  mass density: 1040.93 ± 2 kg/m3
[1]; 318.15 K, w2 = 0.00269
  mass density: 1040.82 ± 2 kg/m3
[1]; 318.15 K, w2 = 0.00423
  mass density: 1040.7 ± 2 kg/m3
[1]; 318.15 K, w2 = 0.00567
  mass density: 1040.56 ± 2 kg/m3
[1]; 318.15 K, w2 = 0.00714
  mass density: 1040.44 ± 2 kg/m3
[1]; 323.15 K, w2 = 0.00159
  surface tension liquid-gas: 52.1 ± 0.5 mN/m
[1]; 323.15 K, w2 = 0.00309
  surface tension liquid-gas: 52.3 ± 0.5 mN/m
[1]; 323.15 K, w2 = 0.00463
  surface tension liquid-gas: 52.7 ± 0.5 mN/m
[1]; 323.15 K, w2 = 0.00611
  surface tension liquid-gas: 53 ± 0.5 mN/m
[1]; 323.15 K, w2 = 0.00762
  surface tension liquid-gas: 53.3 ± 0.5 mN/m
[1]; 323.15 K, w2 = 0.00124
  mass density: 1037.95 ± 2 kg/m3
[1]; 323.15 K, w2 = 0.00269
  mass density: 1037.84 ± 2 kg/m3
[1]; 323.15 K, w2 = 0.00423
  mass density: 1037.72 ± 2 kg/m3
[1]; 323.15 K, w2 = 0.00567
  mass density: 1037.57 ± 2 kg/m3
[1]; 323.15 K, w2 = 0.00714
  mass density: 1037.45 ± 2 kg/m3
[1]; 328.15 K, w2 = 0.00159
  surface tension liquid-gas: 51.8 ± 0.5 mN/m
[1]; 328.15 K, w2 = 0.00309
  surface tension liquid-gas: 52 ± 0.5 mN/m
[1]; 328.15 K, w2 = 0.00463
  surface tension liquid-gas: 52.4 ± 0.5 mN/m
[1]; 328.15 K, w2 = 0.00611
  surface tension liquid-gas: 52.7 ± 0.5 mN/m
[1]; 328.15 K, w2 = 0.00762
  surface tension liquid-gas: 53 ± 0.5 mN/m
[1]; 328.15 K, w2 = 0.00124
  mass density: 1034.99 ± 2 kg/m3
[1]; 328.15 K, w2 = 0.00269
  mass density: 1034.88 ± 2 kg/m3
[1]; 328.15 K, w2 = 0.00423
  mass density: 1034.75 ± 2 kg/m3
[1]; 328.15 K, w2 = 0.00567
  mass density: 1034.61 ± 2 kg/m3
[1]; 328.15 K, w2 = 0.00714
  mass density: 1034.48 ± 2 kg/m3
[1]; 333.15 K, w2 = 0.00159
  surface tension liquid-gas: 51.5 ± 0.5 mN/m
[1]; 333.15 K, w2 = 0.00309
  surface tension liquid-gas: 51.8 ± 0.5 mN/m
[1]; 333.15 K, w2 = 0.00463
  surface tension liquid-gas: 52.1 ± 0.5 mN/m
[1]; 333.15 K, w2 = 0.00611
  surface tension liquid-gas: 52.4 ± 0.5 mN/m
[1]; 333.15 K, w2 = 0.00762
  surface tension liquid-gas: 52.7 ± 0.5 mN/m
[1]; 333.15 K, w2 = 0.00124
  mass density: 1032.05 ± 2 kg/m3
[1]; 333.15 K, w2 = 0.00269
  mass density: 1031.93 ± 2 kg/m3
[1]; 333.15 K, w2 = 0.00423
  mass density: 1031.8 ± 2 kg/m3
[1]; 333.15 K, w2 = 0.00567
  mass density: 1031.65 ± 2 kg/m3
[1]; 333.15 K, w2 = 0.00714
  mass density: 1031.52 ± 2 kg/m3
[1]; 338.15 K, w2 = 0.00159
  surface tension liquid-gas: 51.3 ± 0.5 mN/m
[1]; 338.15 K, w2 = 0.00309
  surface tension liquid-gas: 51.6 ± 0.5 mN/m
[1]; 338.15 K, w2 = 0.00463
  surface tension liquid-gas: 51.9 ± 0.5 mN/m
[1]; 338.15 K, w2 = 0.00611
  surface tension liquid-gas: 52.2 ± 0.5 mN/m
[1]; 338.15 K, w2 = 0.00762
  surface tension liquid-gas: 52.4 ± 0.5 mN/m
[1]; 338.15 K, w2 = 0.00124
  mass density: 1029.11 ± 2 kg/m3
[1]; 338.15 K, w2 = 0.00269
  mass density: 1029 ± 2 kg/m3
[1]; 338.15 K, w2 = 0.00423
  mass density: 1028.86 ± 2 kg/m3
[1]; 338.15 K, w2 = 0.00567
  mass density: 1028.71 ± 2 kg/m3
[1]; 338.15 K, w2 = 0.00714
  mass density: 1028.58 ± 2 kg/m3
[2]; 303.15 K, w2 = 0.00159
  refractive index: 1.5285 ± 0.003
[2]; 303.15 K, w2 = 0.00322
  refractive index: 1.5282 ± 0.003
[2]; 303.15 K, w2 = 0.00513
  refractive index: 1.5279 ± 0.003
[2]; 303.15 K, w2 = 0.00661
  refractive index: 1.5277 ± 0.003
[2]; 303.15 K, w2 = 0.00821
  refractive index: 1.5274 ± 0.003
[2]; 308.15 K, w2 = 0.00159
  refractive index: 1.527 ± 0.003
[2]; 308.15 K, w2 = 0.00322
  refractive index: 1.5268 ± 0.003
[2]; 308.15 K, w2 = 0.00513
  refractive index: 1.5265 ± 0.003
[2]; 308.15 K, w2 = 0.00661
  refractive index: 1.5263 ± 0.003
[2]; 308.15 K, w2 = 0.00821
  refractive index: 1.5261 ± 0.003
[2]; 313.15 K, w2 = 0.00159
  refractive index: 1.5255 ± 0.003
[2]; 313.15 K, w2 = 0.00322
  refractive index: 1.5253 ± 0.003
[2]; 313.15 K, w2 = 0.00513
  refractive index: 1.525 ± 0.003
[2]; 313.15 K, w2 = 0.00661
  refractive index: 1.5248 ± 0.003
[2]; 313.15 K, w2 = 0.00821
  refractive index: 1.5245 ± 0.003
[2]; 318.15 K, w2 = 0.00159
  refractive index: 1.5241 ± 0.003
[2]; 318.15 K, w2 = 0.00322
  refractive index: 1.5239 ± 0.003
[2]; 318.15 K, w2 = 0.00513
  refractive index: 1.5236 ± 0.003
[2]; 318.15 K, w2 = 0.00661
  refractive index: 1.5234 ± 0.003
[2]; 318.15 K, w2 = 0.00821
  refractive index: 1.5232 ± 0.003
[2]; 323.15 K, w2 = 0.00159
  refractive index: 1.5228 ± 0.003
[2]; 323.15 K, w2 = 0.00322
  refractive index: 1.5225 ± 0.003
[2]; 323.15 K, w2 = 0.00513
  refractive index: 1.5222 ± 0.003
[2]; 323.15 K, w2 = 0.00661
  refractive index: 1.522 ± 0.003
[2]; 323.15 K, w2 = 0.00821
  refractive index: 1.5217 ± 0.003
[2]; 328.15 K, w2 = 0.00159
  refractive index: 1.521 ± 0.003
[2]; 328.15 K, w2 = 0.00322
  refractive index: 1.5208 ± 0.003
[2]; 328.15 K, w2 = 0.00513
  refractive index: 1.5205 ± 0.003
[2]; 328.15 K, w2 = 0.00661
  refractive index: 1.5203 ± 0.003
[2]; 328.15 K, w2 = 0.00821
  refractive index: 1.5201 ± 0.003
[2]; 333.15 K, w2 = 0.00159
  refractive index: 1.5192 ± 0.003
[2]; 333.15 K, w2 = 0.00322
  refractive index: 1.519 ± 0.003
[2]; 333.15 K, w2 = 0.00513
  refractive index: 1.5188 ± 0.003
[2]; 333.15 K, w2 = 0.00661
  refractive index: 1.5186 ± 0.003
[2]; 333.15 K, w2 = 0.00821
  refractive index: 1.5184 ± 0.003
[2]; 338.15 K, w2 = 0.00159
  refractive index: 1.5177 ± 0.003
[2]; 338.15 K, w2 = 0.00322
  refractive index: 1.5175 ± 0.003
[2]; 338.15 K, w2 = 0.00513
  refractive index: 1.5172 ± 0.003
[2]; 338.15 K, w2 = 0.00661
  refractive index: 1.517 ± 0.003
[2]; 338.15 K, w2 = 0.00821
  refractive index: 1.5168 ± 0.003
